Results reported in patent EP4578856A1, “HETEROCYCLIC COMPOUND” (Ubience Inc., priority 2022, dated 2024).

Each compound was assayed against T1, human ALK kinase (Homo sapiens, UniProt Q9UM73) (assay: ALK kinase inhibitory activity, mobility shift assay (MSA, Carna Biosciences)). Details: inhibition rate at 10 nM.
T1 construct: GST (N); purchased Carna Biosciences, Inc; host or cells: baculovirus expression system
Type: biochemical
Description: The ALK kinase inhibitory activity was measured using a mobility shift assay (MSA) provided by Carna Biosciences, Inc.
The test compound was dissolved in DMSO to prepare a 1 µM solution. The solution was further diluted 25 times with an assay buffer (20 mmol/L HEPES, 0.01%Triton (registered trademark) X-100, 1 mmol/L DTT, pH 7.5) to obtain a test compound solution.
The human ALK kinase was expressed by fusing the cytoplasmic domain (1058 to 1620 amino acids of Accession No. BAG 10812.1) with GST at the N-terminus using the baculovirus expression system. The GST-ALK was purified by glutathione sepharose chromatography. A 4-fold concentration substrate (Srctide, 1000 nmol/L)/ATP (50 µmol/L)/metal solution (Mg, 5 mmol/L) was prepared with kit buffer (20 mmol/L HEPES, 0.01% Triton (registered trademark) X-100, 5 mmol/L DTT, pH 7.5). A 2-fold concentration kinase solution was prepared with assay buffer.
In the same manner as described in Test Example 1, tests and evaluation of inhibitory activity and data analysis were performed.

T1 sequence (Q9UM73 1058-1620): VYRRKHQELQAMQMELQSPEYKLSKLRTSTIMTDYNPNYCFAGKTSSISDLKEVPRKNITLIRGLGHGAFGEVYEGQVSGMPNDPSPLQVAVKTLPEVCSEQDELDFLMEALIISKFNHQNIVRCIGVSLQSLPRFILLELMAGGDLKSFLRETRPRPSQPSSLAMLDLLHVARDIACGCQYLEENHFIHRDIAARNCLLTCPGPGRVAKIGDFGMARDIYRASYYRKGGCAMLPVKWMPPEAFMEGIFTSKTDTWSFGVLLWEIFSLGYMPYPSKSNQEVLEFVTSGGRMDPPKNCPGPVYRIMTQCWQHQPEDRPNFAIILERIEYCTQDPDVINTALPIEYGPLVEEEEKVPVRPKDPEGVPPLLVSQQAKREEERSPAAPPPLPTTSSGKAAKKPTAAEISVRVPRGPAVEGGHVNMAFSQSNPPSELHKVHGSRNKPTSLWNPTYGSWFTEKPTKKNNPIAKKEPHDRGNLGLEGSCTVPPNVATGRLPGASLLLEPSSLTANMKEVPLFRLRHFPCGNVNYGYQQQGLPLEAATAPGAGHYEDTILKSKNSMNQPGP

Compound | inhibition at 0.01 µM [%]
COC[C@H]1CN[C@H](C)CN1CC(=O)N1CC(C)(C)c2nc(CN(C)CCOCCOCCNC(=O)CN3CCC(c4cc(OC(C)C)c(Nc5ncc(Cl)c(Nc6ccccc6S(=O)(=O)C(C)C)n5)cc4C)CC3)c(Cc3ccc(F)cc3)cc21 [Example 92, 2-(4-(4-((5-Chloro-4-((2-(isopropylsulfonyl)phenyl)amino)pyrimidin-2-yl)amino)-5-isopropoxy-2-methylphenyl)piperidin-1-yl)-N-(2-(2-(2-(((6-(4-fluorobenzyl)-1-(2-((2R,5R)-2-(methoxymethyl)-5-methylpiperazin-1-yl)acetyl)-3,3-dimethyl-2,3-dihydro-1H-pyrrolo[3,2-b]pyridin-5-yl)methyl) (methyl)amino)ethoxy)ethoxy)ethyl) acetamide] | ≥ 75
COC[C@H]1CN[C@H](C)CN1CC(=O)N1CC(C)(C)c2ncc(Cc3cccc(OCCOCCOCCOCCOCCOCCNC(=O)CN4CCC(c5cc(OC(C)C)c(Nc6ncc(Cl)c(Nc7ccccc7S(=O)(=O)C(C)C)n6)cc5C)CC4)c3)cc21 [Example 107, 2-(4-(4-((5-Chloro-4-((2-(isopropylsulfonyl)phenyl)amino)pyrimidin-2-yl)amino)-5-isopropoxy-2-methylphenyl)piperidin-1-yl)-N-(17-(3-((1-(2-((2R,5R)-2-(methoxymethyl)-5-methylpiperazin-1-yl)acetyl)-3,3-dimethyl-2,3-dihydro-1H-pyrrolo[3,2-b]pyridin-6-yl)methyl)phenoxy)-3,6,9,12,15-pentaoxaheptadecyl)acetamide] | ≥ 75
COC[C@H]1CN[C@H](C)CN1CC(=O)N1CC(C)(C)c2nc(CN(C)CCOCCOCCOCCOCCOCCNC(=O)CN3CCC(c4cc(OC(C)C)c(Nc5ncc(Cl)c(Nc6ccccc6S(=O)(=O)C(C)C)n5)cc4C)CC3)c(Cc3ccc(F)cc3)cc21 [Example 95, 2-(4-(4-((5-Chloro-4-((2-(isopropylsulfonyl)phenyl)amino)pyrimidin-2-yl)amino)-5-isopropoxy-2-methylphenyl)piperidin-1-yl)-N-(1-(6-(4-fluorobenzyl)-1-(2-((2R,5R)-2-(methoxymethyl)-5-methylpiperazin-1-yl)acetyl)-3,3-dimethyl-2,3-dihydro-1H-pyrrolo[3,2-b]pyridin-5-yl)-2-methyl-5,8,11,14,17-pentaoxa-2-azanonadecan-19-yl)acetamide] | ≥ 75
COC[C@H]1CN[C@H](C)CN1CC(=O)N1CC(C)(C)c2ncc(Cc3ccccc3OCCOCCOCCOCCOCCNC(=O)CN3CCC(c4cc(OC(C)C)c(Nc5ncc(Cl)c(Nc6ccccc6S(=O)(=O)C(C)C)n5)cc4C)CC3)cc21 [Example 100, 2-(4-(4-((5-Chloro-4-((2-(isopropylsulfonyl)phenyl)amino)pyrimidin-2-yl)amino)-5-isopropoxy-2-methylphenyl)piperidin-1-yl)-N-(14-(2-((1-(2-((2R,5R)-2-(methoxymethyl)-5-methylpiperazin-1-yl)acetyl)-3,3-dimethyl-2,3-dihydro-1H-pyrrolo[3,2-b]pyridin-6-yl)methyl)phenoxy)-3,6,9,12-tetraoxatetradecyl)acetamide] | ≥ 75

Other lines, results leading:

inhibition at 0.01 µM [%] | Compound
50 to 75 | Cc1cc(Nc2ncc(Cl)c(Nc3ccccc3S(=O)(=O)C(C)C)n2)c(OC(C)C)cc1C1CCN(CC(=O)NCCOCCOCCOCCOCCOCCN(C)C[C@H]2CN[C@H](C)CN2CC(=O)N2CC(C)(C)c3ncc(Cc4ccc(F)cc4)cc32)CC1 [Example 89, 2-(4-(4-((5-Chloro-4-((2-(isopropylsulfonyl)phenyl)amino)pyrimidin-2-yl)amino)-5-isopropoxy-2-methylphenyl)piperidin-1-yl)-N-(1-((2R,5R)-1-(2-(6-(4-fluorobenzyl)-3,3-dimethyl-2,3-dihydro-1H-pyrrolo[3,2-b]pyridin-1-yl)-2-oxoethyl)-5-methylpiperazin-2-yl)-2-methyl-5,8,11,14,17-pentaoxa-2-azanonadecan-19-yl)acetamide]
50 to 75 | Cc1cc(Nc2ncc(Cl)c(Nc3ccccc3S(=O)(=O)C(C)C)n2)c(OC(C)C)cc1C1CCN(CC(=O)NCCOCCN(C)C[C@H]2CN[C@H](C)CN2CC(=O)N2CC(C)(C)c3ncc(Cc4ccc(F)cc4)cc32)CC1 [Example 85, 2-(4-(4-((5-Chloro-4-((2-(isopropylsulfonyl)phenyl)amino)pyrimidin-2-yl)amino)-5-isopropoxy-2-methylphenyl)piperidin-1-yl)-N-(2-(2-((((2R,5R)-1-(2-(6-(4-fluorobenzyl)-3,3-dimethyl-2,3-dihydro-1H-pyrrolo[3,2-b]pyridin-1-yl)-2-oxoethyl)-5-methylpiperazin-2-yl)methyl) (methyl)amino)ethoxy)ethyl)acetamide]

These compounds were tested against FAK protein (Homo sapiens, UniProt Q05397) (assay: FAK kinase inhibitory activity, mobility shift assay (MSA, Carna Biosciences)). Details: inhibition rate at 30 nM; reaction time 5 hours.
Type: biochemical
Design: GST (N); purchased Carna Biosciences, Inc; host or cells: baculovirus expression system
Description: The FAK kinase inhibitory activity was measured using a mobility shift assay (MSA) provided by Carna Biosciences, Inc.
The test compound was dissolved in DMSO to prepare a 3 µM solution. The solution was further diluted 25 times with an assay buffer (20 mmol/L HEPES, 0.01%Triton (registered trademark) X-100, 1 mmol/L DTT, pH 7.5) to obtain a test compound solution.
Incomplete human FAK kinase was expressed by fusing 376 to 1052 amino acids of Accession No. NP_722560.1 with GST at the N-terminus using the baculovirus expression system. The GST-FAK was purified by glutathione sepharose chromatography. A 4-fold concentration substrate (Blk/Lyntide, 1000 nmol/L)/ATP (25 µmol/L)/metal solution (Mg, 5 mmol/L) was prepared with kit buffer (20 mmol/L HEPES, 0.01% Triton (registered trademark) X-100, 5 mmol/L DTT, pH 7.5). A 2-fold concentration kinase solution was prepared with assay buffer.
In the same manner as described in Test Example 1, tests and evaluation of inhibitory activity and data analysis were performed. The reaction time was set to 5 hours. […]

Sequence of FAK protein (Q05397 376-1052): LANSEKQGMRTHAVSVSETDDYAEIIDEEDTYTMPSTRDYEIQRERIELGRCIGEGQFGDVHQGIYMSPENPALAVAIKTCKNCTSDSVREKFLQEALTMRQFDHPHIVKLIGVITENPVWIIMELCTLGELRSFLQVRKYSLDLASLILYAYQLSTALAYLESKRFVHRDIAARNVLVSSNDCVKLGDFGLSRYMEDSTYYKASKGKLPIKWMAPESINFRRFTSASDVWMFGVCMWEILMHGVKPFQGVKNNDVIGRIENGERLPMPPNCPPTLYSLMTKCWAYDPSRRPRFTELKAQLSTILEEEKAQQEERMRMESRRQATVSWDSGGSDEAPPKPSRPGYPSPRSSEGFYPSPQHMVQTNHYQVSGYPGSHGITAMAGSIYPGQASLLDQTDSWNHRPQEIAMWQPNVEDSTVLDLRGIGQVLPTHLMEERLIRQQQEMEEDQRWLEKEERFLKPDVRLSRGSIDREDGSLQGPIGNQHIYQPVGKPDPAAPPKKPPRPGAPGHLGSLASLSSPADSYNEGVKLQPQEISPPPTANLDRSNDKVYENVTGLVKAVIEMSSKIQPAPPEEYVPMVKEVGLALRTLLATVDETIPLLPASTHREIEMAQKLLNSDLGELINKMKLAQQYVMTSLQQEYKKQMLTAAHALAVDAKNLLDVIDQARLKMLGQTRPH

inhibition at 0.03 µM [%] | Compound
50 to 75 | COC[C@H]1CN[C@H](C)CN1CC(=O)N1CC(C)(C)c2ncc(Cc3cccc(OCCN4CCN(CCOCCOCCOCCOCC(=O)Nc5ccc(Nc6ncc(C(F)(F)F)c(NCc7cccc(S(C)(=O)=O)c7)n6)cc5)CC4)c3)cc21 [Example 128, 14-(4-(2-(3-((1-(2-((2R,5R)-2-(Methoxymethyl)-5-methylpiperazin-1-yl)acetyl)-3,3-dimethyl-2,3-dihydro-1H-pyrrolo[3,2-b]pyridin-6-yl)methyl)phenoxy)ethyl)piperazin-1-yl)-N-(4-((4-((3-(methylsulfonyl)benzyl)amino)-5-(trifluoromethyl)pyrimidin-2-yl)amino)phenyl)-3,6,9,12-tetraoxatetradecanamide]
≥ 75 | C[C@@H]1CN(CC(=O)N2CC(C)(C)c3ncc(Cc4ccc(F)cc4)cc32)[C@@H](CN(C)CCOCC(=O)Nc2ccc(Nc3ncc(C(F)(F)F)c(NCc4cccc(S(C)(=O)=O)c4)n3)cc2)CN1 [Example 109, 2-(2-((((2R,5R)-1-(2-(6-(4-Fluorobenzyl)-3,3-dimethyl-2,3-dihydro-1H-pyrrolo[3,2-b]pyridin-1-yl)-2-oxoethyl)-5-methylpiperazin-2-yl)methyl)(methyl)amino)ethoxy)-N-(4-((4-((3-(methylsulfonyl)benzyl)amino)-5-(trifluoromethyl)pyrimidin-2-yl)amino)phenyl) acetamide]
50 to 75 | COC[C@H]1CN[C@H](C)CN1CC(=O)N1CC(C)(C)c2nc(CN3CCN(CCOCCOCC(=O)Nc4ccc(Nc5ncc(C(F)(F)F)c(NCc6cccc(S(C)(=O)=O)c6)n5)cc4)CC3)c(Cc3ccc(F)cc3)cc21 [Example 116, 2-(2-(2-(4-((6-(4-Fluorobenzyl)-1-(2-((2R,5R)-2-(methoxymethyl)-5-methylpiperazin-1-yl)acetyl)-3,3-dimethyl-2,3-dihydro-1H-pyrrolo[3,2-b]pyridin-5-yl)methyl)piperazin-1-yl)ethoxy)ethoxy)-N-(4-((4-((3-(methylsulfonyl)benzyl)amino)-5-(trifluoromethyl)pyrimidin-2-yl)amino)phenyl)acetamide]
50 to 75 | COC[C@H]1CN[C@H](C)CN1CC(=O)N1CC(C)(C)c2ncc(Cc3ccccc3OCCN3CCN(CCOCCOCCOCC(=O)Nc4ccc(Nc5ncc(C(F)(F)F)c(NCc6cccc(S(C)(=O)=O)c6)n5)cc4)CC3)cc21 [Example 122, 2-(2-(2-(2-(4-(2-(2-((1-(2-((2R,5R)-2-(Methoxymethyl)-5-methylpiperazin-1-yl)acetyl)-3,3-dimethyl-2,3-dihydro-1H-pyrrolo[3,2-b]pyridin-6-yl)methyl)phenoxy)ethyl)piperazin-1-yl)ethoxy)ethoxy)ethoxy)-N-(4-((4-((3-(methylsulfonyl)benzyl)amino)-5-(trifluoromethyl)pyrimidin-2-yl)amino)phenyl)acetamide]
